From the C3SDB collision cross section collection

Columns and labels:
[1] = instrument: DT, stepped-field
[2] = [M+H]+; instrument: TW; Major Mix IMS/Tof Calibration Kit (Waters)

Row | Structure (SMILES) | collision cross section (N2) [2] [Å²] | further results
1 | OCC1OC(OC2C(CO)OC(OC3C(CO)OC(OC4C(CO)OC(O)C(O)C4O)C(O)C3O)C(O)C2O)C(O)C(O)C1O (stereo not given) [(Hex)4] | – | collision cross section (N2) ([1]; [M+H-H2O]+): 234.7 Å²; collision cross section (N2) ([1]; [M+K]+): 236.6 Å²; collision cross section (N2) ([1]; [M+Na-H2O]+): 234.8 Å²
2 | COc1ccc2c(c1)N(C[C@H](C)CN(C)C)c1ccccc1S2 [Levomepromazine] | 176.8 | –
3 | CNC(=O)C(CCN1CCC(O)(c2ccc(Cl)cc2)CC1)(c1ccccc1)c1ccccc1 [Loperamide-M Desmethyl] | 218.7 | –
4 | CCOC(=O)N1CCC(=C2c3ccc(Cl)cc3CCc3cccnc32)CC1 [Loratadine] | 187.4 | –
5 | O=C1Nc2ccc(Cl)cc2C(c2ccccc2Cl)=NC1O (stereo not given) [Lorazepam] | 165.8 | –
6 | CNC(C)Cc1ccc2c(c1)OCO2 (stereo not given) [MDMA] | 144.9 | –
7 | CCCC(C(=O)c1ccc2c(c1)OCO2)N1CCCC1 (stereo not given) [MDPV] | 166.7 | –
8 | CCOC(=O)CC(SP(=S)(OC)OC)C(=O)OCC (stereo not given) [Malathion] | 165.9 | –
9 | NCCCC12CCC(c3ccccc31)c1ccccc12 [Maprotiline-M N-desmethyl] | 163.1 | –
10 | Cc1cccc(CN2CCN(C(c3ccccc3)c3ccc(Cl)cc3)CC2)c1 (stereo not given) [Meclozine] | 208.2 | –
11 | CN1CCN=C(c2ccccc2)c2cc(Cl)ccc21 [Medazepam] | 160.8 | –
12 | Cc1cnc(NC(=O)C2=C(O)c3ccccc3S(=O)(=O)N2C)s1 [Meloxicam] | 173.9 | –
13 | COc1ccc(CN(CCN(C)C)c2ccccn2)cc1 [Mepyramine] | 169.6 | –
14 | CCC(=O)C(CC(C)N(C)C)(c1ccccc1)c1ccccc1 (stereo not given) [Methadone] | 177.7 | –
15 | COC(=O)C(c1ccccc1)C1CCCCN1 (stereo not given) [Methylphenidate] | 154.2 | –
16 | CS(=O)(=O)c1ccc2c(c1)N(CCCN1CCC(C(N)=O)CC1)c1ccccc1S2 [Metopimazine] | 196.3 | –
17 | Cc1ncc([N+](=O)[O-])n1CCO [Metronidazole] | 132.4 | –
18 | Cc1ncc2n1-c1ccc(Cl)cc1C(c1ccccc1F)=NC2 [Midazolam] | 172.8 | –
19 | CN1CC[C@]23c4c5ccc(O)c4O[C@H]2[C@@H](O)C=C[C@H]3[C@H]1C5 [Morphine] | 164 | –
20 | CCc1nn(CCCN2CCN(c3cccc(Cl)c3)CC2)c(=O)n1CCOc1ccccc1 [Nefazodone] | 211.7 | –
21 | Nc1ccc2c(c1)C(c1ccccc1)=NCC(=O)N2 [Nitrazepam-M 7-amino] | 158.1 | –
22 | CCOC(=O)C1=C(C)NC(C)=C(C(=O)OC)C1c1cccc([N+](=O)[O-])c1 (stereo not given) [Nitrendipine] | 182.2 | –
23 | Cc1nccn1CC1CCc2c(c3cccc(O)c3n2C)C1=O (stereo not given) [Ondansetron-M 8-hydroxy] | 173.7 | –
24 | O=C1Nc2ccc(Cl)cc2C(c2ccccc2)=NC1O (stereo not given) [Oxazepam] | 162.3 | –
25 | COc1ccc2c3c1O[C@H]1C(=O)CC[C@@]4(O)[C@@H](C2)N(C)CC[C@]314 [Oxycodone] | 168.3 | –
26 | CCC(=O)NS(=O)(=O)c1ccc(-c2c(-c3ccccc3)noc2C)cc1 [Parecoxib] | 189.2 | –
27 | N#Cc1ccc2c(c1)N(CCCN1CCC(O)CC1)c1ccccc1S2 [Periciazine] | 186.4 | –

Row | Structure (SMILES) | collision cross section (N2) [2] [Å²] | further results
28 | OCCN1CCN(CCCN2c3ccccc3Sc3ccc(Cl)cc32)CC1 [Perphenazine] | 193.2 | –
29 | CCOc1ccc(NC(C)=O)cc1 [Phenacetin] | 139.4 | –
30 | CN1C(C(=O)Nc2ccccn2)=C(O)c2ccccc2S1(=O)=O [Piroxicam] | 170.9 | –
31 | O=C1CN=C(c2ccccc2)c2cc(Cl)ccc2N1CC1CC1 [Prazepam] | 174 | –
32 | COc1cc2nc(N3CCN(C(=O)c4ccco4)CC3)nc(N)c2cc1OC [Prazosin] | 192.7 | –
33 | CN1CCN(CCCN2c3ccccc3Sc3ccc(Cl)cc32)CC1 [Prochlorperazine] | 183.7 | –
34 | CN(C)CCc1c[nH]c2cccc(OP(=O)(O)O)c12 [Psilocybine] | 157.3 | –
35 | CCOC(=O)[C@H](CCc1ccccc1)N[C@@H](C)C(=O)N1[C@H](C(=O)O)C[C@@H]2CCC[C@@H]21 [Ramipril] | 197 | –
36 | Cc1nc2n(c(=O)c1CCN1CCC(c3noc4cc(F)ccc34)CC1)CCCC2 [Risperidone] | 205.5 | –
37 | CCN(C)C(=O)Oc1cccc([C@H](C)N(C)C)c1 [Rivastigmine] | 165 | –
38 | OCc1cc([C@@H](O)CNCCCCCCOCCCCc2ccccc2)ccc1O [Salmeterol] | 202.9 | –
39 | CC(C)NCC(O)c1ccc(NS(C)(=O)=O)cc1 (stereo not given) [Sotalol] | 167 | –
40 | C[C@]12Cc3cn[nH]c3C[C@@H]1CC[C@@H]1[C@@H]2CC[C@@]2(C)[C@H]1CC[C@]2(C)O [Stanozolol] | 188.1 | –
41 | O=C1C[C@@H]2OCC=C3CN4CC[C@]56c7ccccc7N1[C@H]5[C@H]2[C@H]3C[C@H]46 [Strychnine] | 172 | –
42 | Cc1cc(NS(=O)(=O)c2ccc(N)cc2)no1 [Sulfamethoxazole] | 151 | –
43 | CC1=C(CC(=O)O)c2cc(F)ccc2/C1=C\c1ccc(S(C)=O)cc1 (stereo not given) [Sulindac] | 192.6 | –
44 | CNS(=O)(=O)Cc1ccc2[nH]cc(CCN(C)C)c2c1 [Sumatriptan] | 162.1 | –
45 | CC[C@@H](c1cccc(O)c1)[C@@H](C)CN(C)C [Tapentadol] | 152.1 | –
46 | CN(C/C=C/C#CC(C)(C)C)Cc1cccc2ccccc12 [Terbinafine] | 187.2 | –
47 | CSc1ccc2c(c1)N(CCC1CCCCN1C)c1ccccc1S2 (stereo not given) [Thioridazine] | 184.9 | –
48 | Cc1ccsc1C(=CCCN1CCC[C@@H](C(=O)O)C1)c1sccc1C [Tiagabine] | 184.5 | –
49 | CC(C(=O)O)c1ccc(C(=O)c2ccccc2)s1 (stereo not given) [Tiaprofenic acid] | 155.1 | –
50 | COc1cc(Cc2cnc(N)nc2N)cc(OC)c1OC [Trimethoprim] | 170.8 | –
51 | CNCCC=C1c2ccccc2CCc2ccccc21 [Triptyline-M nor] | 164.5 | –
52 | c1cnc2cc3c(cc2n1)[C@@H]1CNC[C@H]3C1 [Varenicline] | 151 | –
53 | O=C1Cc2cc(CCN3CCN(c4nsc5ccccc45)CC3)c(Cl)cc2N1 [Ziprasidone] | 192.6 | –
